# Tests used:
# hERG (KCNH2) [1] = target: T1, hERG (KCNH2) (Homo sapiens, UniProt Q12809); assay: Inhibition of human ERG at 1.5 mg/ml by binding assay relative to control; set-up: dose or concentration left out as unconfirmed
# COLO 205 = assay: Antiproliferative activity against human COLO205 cells harboring BRAF V600E/D mutant measured after 4 days; format: functional, cell-based; settings: COLO 205, 96 h
# [2] = target: Mitogen-activated protein kinase 1 (Homo sapiens, UniProt P28482); assay: Inhibition of ERK2 (unknown origin) using peptide substrate measured after 45 mins by IMAP assay
# [3] = target: Mitogen-activated protein kinase 3 (Homo sapiens, UniProt P27361); assay: Inhibition of ERK1 (unknown origin) using peptide substrate measured after 45 mins by IMAP assay
# HT-29 = assay: Antiproliferative activity against human HT-29 cells harboring BRAF V600E/D mutant measured after 4 days; format: functional, cell-based; settings: HT-29, 96 h
# hERG (KCNH2) [4] = target: T1, hERG (KCNH2); assay: Inhibition of human ERG at 5 mg/ml by binding assay relative to control; set-up: dose or concentration left out as unconfirmed
# hERG (KCNH2) [5] = target: T1, hERG (KCNH2); assay: Inhibition of human ERG at 10 uM by IonWork assay relative to control
# hERG (KCNH2) [6] = target: T1, hERG (KCNH2); assay: Inhibition of human ERG at 1 uM by IonWork assay relative to control
# [7] = Half life in rat; format: ADME, organism-based; settings: in vivo
# [8] = Mean residence time in rat; format: ADME, organism-based; settings: in vivo
# [9] = Plasma clearance in rat; format: ADME, organism-based
# [10] = AUC in rat at 10 mg/kg; format: ADME, organism-based; settings: in vivo
# [11] = AUC in dog at 10 mg/kg; format: ADME, organism-based, Canis lupus familiaris; settings: in vivo
# [12] = Clearance in human hepatocytes assessed per million cells; format: ADME, cell-based, Hepatocyte
# [13] = Clearance in dog hepatocytes assessed per million cells; format: ADME, cell-based, Canis lupus familiaris, Hepatocyte
# [14] = Drug metabolism in bile duct-cannulated rat urine assessed as glutathione conjugation at 10 mg/kg, iv by LC/ESI-MS/MS analysis; format: ADME, organism-based; settings: in vivo
# [15] = Drug metabolism in bile duct-cannulated rat bile assessed as oxidation at 10 mg/kg, iv by LC/ESI-MS/MS analysis; format: ADME, organism-based; settings: in vivo
# [16] = Drug metabolism in bile duct-cannulated rat plasma assessed as oxidative dealkylation by measuring amide cleavage at 10 mg/kg, iv by LC/ESI-MS/MS analysis; format: ADME, organism-based; settings: in vivo
# [17] = Drug metabolism in bile duct-cannulated rat urine assessed as oxidation at 10 mg/kg, iv by LC/ESI-MS/MS analysis; format: ADME, organism-based; settings: in vivo
# [18] = Drug metabolism in bile duct-cannulated rat urine assessed as oxidative dealkylation by measuring loss of isopropyl group at 10 mg/kg, iv by LC/ESI-MS/MS analysis; format: ADME, organism-based; settings: in vivo
# [19] = Drug metabolism in bile duct-cannulated rat bile assessed as oxidative dealkylation by measuring loss of isopropyl group at 10 mg/kg, iv by LC/ESI-MS/MS analysis; format: ADME, organism-based; settings: in vivo
# [20] = Drug metabolism in bile duct-cannulated rat plasma assessed as glutathione conjugation at 10 mg/kg, iv by LC/ESI-MS/MS analysis; format: ADME, organism-based; settings: in vivo
# [21] = Drug metabolism in bile duct-cannulated rat plasma assessed as conjugation at 10 mg/kg, iv by LC/ESI-MS/MS analysis; format: ADME, organism-based; settings: in vivo
# [22] = Drug metabolism in bile duct-cannulated rat plasma assessed as oxidation at 10 mg/kg, iv by LC/ESI-MS/MS analysis; format: ADME, organism-based; settings: in vivo
# [23] = Drug metabolism in bile duct-cannulated rat urine assessed as conjugation at 10 mg/kg, iv by LC/ESI-MS/MS analysis; format: ADME, organism-based; settings: in vivo
# [24] = Drug metabolism in bile duct-cannulated rat bile assessed as conjugation at 10 mg/kg, iv by LC/ESI-MS/MS analysis; format: ADME, organism-based; settings: in vivo
# [25] = Drug metabolism in bile duct-cannulated rat bile assessed as oxidative dealkylation by measuring amide cleavage at 10 mg/kg, iv by LC/ESI-MS/MS analysis; format: ADME, organism-based; settings: in vivo
# [26] = Drug metabolism in bile duct-cannulated rat plasma assessed as oxidative dealkylation by measuring loss of isopropyl group at 10 mg/kg, iv by LC/ESI-MS/MS analysis; format: ADME, organism-based; settings: in vivo
# [27] = Drug metabolism in bile duct-cannulated rat urine assessed as oxidative dealkylation by measuring amide cleavage at 10 mg/kg, iv by LC/ESI-MS/MS analysis; format: ADME, organism-based; settings: in vivo
# Cytochrome P450 3A4 = Cytochrome P450 3A4 (Homo sapiens, UniProt P08684); assay: Inhibition of CYP3A4 (unknown origin) preincubated followed by substrate addition; format: ADME
# Chain of Cytochrome P450 3A4 (P08684 whole entry): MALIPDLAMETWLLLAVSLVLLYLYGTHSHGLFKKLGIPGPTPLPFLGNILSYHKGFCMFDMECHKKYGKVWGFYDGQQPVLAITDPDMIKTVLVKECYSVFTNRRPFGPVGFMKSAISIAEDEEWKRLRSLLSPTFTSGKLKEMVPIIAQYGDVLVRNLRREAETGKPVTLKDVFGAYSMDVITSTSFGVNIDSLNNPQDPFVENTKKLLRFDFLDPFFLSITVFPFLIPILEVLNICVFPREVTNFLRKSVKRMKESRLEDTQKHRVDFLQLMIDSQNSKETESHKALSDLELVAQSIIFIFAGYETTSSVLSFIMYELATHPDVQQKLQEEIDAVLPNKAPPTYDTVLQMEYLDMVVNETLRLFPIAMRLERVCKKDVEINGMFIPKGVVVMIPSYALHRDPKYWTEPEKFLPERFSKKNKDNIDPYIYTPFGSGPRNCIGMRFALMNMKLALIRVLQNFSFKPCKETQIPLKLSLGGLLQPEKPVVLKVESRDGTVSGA
# T1 sequence (Q12809 whole entry): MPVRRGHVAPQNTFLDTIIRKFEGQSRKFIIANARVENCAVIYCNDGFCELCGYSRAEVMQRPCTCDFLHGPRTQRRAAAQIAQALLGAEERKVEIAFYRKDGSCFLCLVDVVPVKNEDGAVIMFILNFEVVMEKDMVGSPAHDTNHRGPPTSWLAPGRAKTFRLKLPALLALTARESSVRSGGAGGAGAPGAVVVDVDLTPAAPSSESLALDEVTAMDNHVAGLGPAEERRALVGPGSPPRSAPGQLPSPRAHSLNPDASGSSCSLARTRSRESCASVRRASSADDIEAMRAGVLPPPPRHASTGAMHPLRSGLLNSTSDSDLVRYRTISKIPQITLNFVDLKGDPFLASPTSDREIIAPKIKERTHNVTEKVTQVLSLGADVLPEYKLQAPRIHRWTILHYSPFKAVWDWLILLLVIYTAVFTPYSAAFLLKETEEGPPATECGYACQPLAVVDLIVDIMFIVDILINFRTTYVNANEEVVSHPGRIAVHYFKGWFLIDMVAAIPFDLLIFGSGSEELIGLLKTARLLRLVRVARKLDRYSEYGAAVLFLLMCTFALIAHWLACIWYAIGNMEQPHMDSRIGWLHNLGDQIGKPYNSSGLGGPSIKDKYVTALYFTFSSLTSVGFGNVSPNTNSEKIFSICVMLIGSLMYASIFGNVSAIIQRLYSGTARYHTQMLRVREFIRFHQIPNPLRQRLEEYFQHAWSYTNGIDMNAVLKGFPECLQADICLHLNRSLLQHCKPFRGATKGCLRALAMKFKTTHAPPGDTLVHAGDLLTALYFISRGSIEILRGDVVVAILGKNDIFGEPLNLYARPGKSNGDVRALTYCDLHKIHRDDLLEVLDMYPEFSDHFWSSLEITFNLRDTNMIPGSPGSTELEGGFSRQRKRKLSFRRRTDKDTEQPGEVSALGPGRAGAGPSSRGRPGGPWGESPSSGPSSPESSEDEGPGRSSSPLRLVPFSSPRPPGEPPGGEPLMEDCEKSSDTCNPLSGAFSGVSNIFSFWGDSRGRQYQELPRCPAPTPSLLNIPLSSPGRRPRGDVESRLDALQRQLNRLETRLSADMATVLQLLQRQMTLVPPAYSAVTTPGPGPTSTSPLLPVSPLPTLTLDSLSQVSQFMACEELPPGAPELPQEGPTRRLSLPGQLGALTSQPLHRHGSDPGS
# Chain of Mitogen-activated protein kinase 3 (P27361 whole entry): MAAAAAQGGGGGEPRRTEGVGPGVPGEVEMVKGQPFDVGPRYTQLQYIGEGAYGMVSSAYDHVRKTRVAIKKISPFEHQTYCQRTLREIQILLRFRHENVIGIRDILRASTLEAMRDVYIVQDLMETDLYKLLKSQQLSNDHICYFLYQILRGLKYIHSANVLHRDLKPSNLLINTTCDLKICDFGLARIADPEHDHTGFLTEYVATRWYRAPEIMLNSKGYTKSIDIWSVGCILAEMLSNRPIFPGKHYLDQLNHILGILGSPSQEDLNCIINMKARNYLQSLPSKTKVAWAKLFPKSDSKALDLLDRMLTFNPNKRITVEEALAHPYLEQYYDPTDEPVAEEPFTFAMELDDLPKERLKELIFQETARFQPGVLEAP
# Chain of Mitogen-activated protein kinase 1 (P28482 whole entry): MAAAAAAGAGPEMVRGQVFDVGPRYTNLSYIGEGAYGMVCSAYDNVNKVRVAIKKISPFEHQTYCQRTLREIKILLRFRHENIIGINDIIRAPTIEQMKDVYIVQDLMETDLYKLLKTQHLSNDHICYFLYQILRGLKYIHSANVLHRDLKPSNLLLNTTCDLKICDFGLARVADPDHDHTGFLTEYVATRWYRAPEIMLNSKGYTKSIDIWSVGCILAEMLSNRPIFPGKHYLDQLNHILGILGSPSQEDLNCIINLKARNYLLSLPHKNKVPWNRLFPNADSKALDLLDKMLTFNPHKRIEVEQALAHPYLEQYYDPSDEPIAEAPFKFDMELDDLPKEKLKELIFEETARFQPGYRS
Structure (SMILES),inhibition (hERG (KCNH2) [1]),IC50 (COLO 205),IC50 [2],IC50 [3],IC50 (HT-29),inhibition (hERG (KCNH2) [4]),other results
CS[C@@]1(C(=O)Nc2ccc3[nH]nc(-c4ccnc(OC(C)C)c4)c3c2)CCN(CC(=O)N2CC=C(c3ccc(-c4ncn(C)n4)cc3)CC2)C1,3%,41 nM,27 nM,74 nM,99 nM,10%,
CS[C@@]1(C(=O)Nc2ccc3[nH]nc(-c4ccc(F)cc4)c3c2)CCN(CC(=O)N2CC=C(c3nc(-c4ncccn4)cs3)CC2)C1,6%,,291 nM,952 nM,,19%,
CS[C@]1(C(=O)Nc2ccc3[nH]nc(-c4ccc(OC(C)C)nc4)c3c2)CCN(CC(=O)N2CC=C(c3ccc(-c4ncn(C)n4)cc3)CC2)C1,,> 1000 nM,729 nM,,,,inhibition at 10 µM (hERG (KCNH2) [5]): 10%; inhibition at 1 µM (hERG (KCNH2) [6]): 6%
CCNc1nnc(-c2ccc(C3=CCN(C(=O)CN4CC[C@@](SC)(C(=O)Nc5ccc6[nH]nc(-c7ccc(F)cc7)c6c5)C4)CC3)cc2)o1,-3%,22 nM,5 nM,17 nM,49 nM,6%,
CC(C)Oc1ccc(-c2n[nH]c3ccc(NC(=O)[C@]4(S(C)(=O)=O)CCN(CC(=O)N5CC=C(c6ccc(-c7ncn(C)n7)cc6)CC5)C4)cc23)cn1,,86 nM,29 nM,228 nM,243 nM,,inhibition at 10 µM (hERG (KCNH2) [5]): 5%; inhibition at 1 µM (hERG (KCNH2) [6]): 4%
O=C(Nc1ccc2[nH]nc(-c3ccncc3)c2c1)[C@@H]1CCN(CC(=O)N2CCN(c3ccc(-c4ncccn4)cc3)CC2)C1,,16 nM,,8 nM,59 nM,,half-life [7]: 1.5 h; MRT [8]: 1.6 h; clearance [9]: 122 mL/min/kg
CS[C@@]1(C(=O)Nc2ccc3[nH]nc(-c4ccc(F)cc4)c3c2)CCN(CC(=O)N2CC=C(c3ccc(-c4ncccn4)cc3)CC2)C1,,45 nM,,41 nM,118 nM,,AUC [10]: 25.9 to 26 µM·h; AUC [11]: 17 µM·h; CLH [12]: 18 µL/min; CLH [13]: 7 µL/min
CS[C@@]1(C(=O)Nc2ccc3[nH]nc(-c4ccc(F)cc4)c3c2)CCN(CC(=O)N2CCC(c3ccc(-c4ncccn4)cc3)CC2)C1,22%,76 nM,23 nM,43 nM,245 nM,12%,
[3H]c1cc(OC(C)C)nc([3H])c1-c1n[nH]c2ccc(NC(=O)[C@]3(SC)CCN(CC(=O)N4CC=C(c5ccc(-c6ncn(C)n6)cc5)CC4)C3)cc12,,,,,,,Drug metabolism [14]: Metabolite_Notdetected; Drug metabolism [15]: Metabolite_Detected; Drug metabolism [16]: Metabolite_Detected; Drug metabolism [17]: Metabolite_Detected; Drug metabolism [18]: Metabolite_Detected; Drug metabolism [19]: Metabolite_Detected; Drug metabolism [20]: Metabolite_Notdetected; Drug metabolism [21]: Metabolite_Detected; Drug metabolism [22]: Metabolite_Detected; Drug metabolism [23]: Metabolite_Detected; Drug metabolism [24]: Metabolite_Detected; Drug metabolism [25]: Metabolite_Detected; Drug metabolism [26]: Metabolite_Detected; Drug metabolism [27]: Metabolite_Detected
COc1cc(-c2n[nH]c3ccc(NC(=O)[C@]4(SC)CCN(CC(=O)N5CC=C(c6ccc(-c7ncccn7)cc6)CC5)C4)cc23)ccn1,2%,34 nM,5 nM,19 nM,60 nM,15%,inhibition at 10 µM (hERG (KCNH2) [5]): 19%; inhibition at 1 µM (hERG (KCNH2) [6]): 7%
CCNc1ncc(-c2ccc(C3=CCN(C(=O)CN4CC[C@@](SC)(C(=O)Nc5ccc6[nH]nc(-c7ccnc(C)c7)c6c5)C4)CC3)cc2)s1,-7%,30 nM,6 nM,34 nM,131 nM,-3%,
CS[C@@]1(C(=O)Nc2ccc3[nH]nc(-c4ccc(F)cc4)c3c2)CCN(CC(=O)N2CCN(c3ccc(-c4ncccn4)cc3F)CC2)C1,,,114 nM,663 nM,,,
COc1cc(-c2n[nH]c3ccc(NC(=O)[C@]4(SC)CCN(CC(=O)N5CC=C(c6ccc(-c7ncn(C)n7)cc6)CC5)C4)cc23)ccn1,,10 nM,1.7 nM,7.9 nM,80 nM,,inhibition at 10 µM (hERG (KCNH2) [5]): 7.2%; inhibition at 1 µM (hERG (KCNH2) [6]): 0.8%
CS[C@@]1(C(=O)Nc2ccc3[nH]nc(-c4ccc(F)cc4)c3c2)CCN(CC(=O)N2CC=C(c3ncc(-c4ncccn4)s3)CC2)C1,-5%,> 111 nM,36 nM,207 nM,543 nM,10%,
CS[C@@]1(C(=O)Nc2ccc3[nH]nc(-c4ccc(OC(C)C)nc4)c3c2)CCN(CC(=O)N2CC=C(c3ccc(-c4ncccn4)cc3)CC2)C1,25%,57 nM,13 nM,93 nM,79 nM,37%,
CS[C@@]1(C(=O)Nc2ccc3[nH]nc(-c4ccc(F)cc4)c3c2)CCN(CC(=O)N2CC=C(c3ccc(-c4ncccn4)cc3F)CC2)C1,11%,83 nM,25 nM,135 nM,209 nM,32%,
CS[C@@]1(C(=O)Nc2ccc3[nH]nc(-c4ccc(F)cc4)c3c2)CCN(CC(=O)N2CCN(c3ccc(-c4ncccn4)cc3)CC2)C1,3%,47 nM,,25 nM,87 nM,47%,
CS[C@@]1(C(=O)Nc2ccc3[nH]nc(-c4ccc5c(c4)OCO5)c3c2)CCN(CC(=O)N2CC=C(c3ccc(-c4ncccn4)cc3)CC2)C1,19%,29 nM,13 nM,45 nM,77 nM,16%,AUC [10]: 106 µM·h; IC50 (Cytochrome P450 3A4): 300 nM
